One data set concerns HCV JFH-1 strain. Briefly: Mini-EVLP circuit spiked with HCV JFH-1, infectivity loss in Huh 7.5.1 hepatocyte culture.
Data set [1] in a line: Ex vivo lung function during 9 hours of EVLP of human donor lungs. As to conditions: PDT (MB 1 umol/L + red light) applied to circuit, 9 hours EVLP. On the procedure:
Human Lung Studies: effect of EVLP and light therapies into HCV titers: In order to evaluate the effect of EVLP itself and also as a platform for light-based therapies against HCV titers in the lung tissue and perfusate solution, 9 rejected human lungs from NAT+ HCV donors. Donor lungs were recovered using standard protocols and flushed with cold Low-Potassium Dextran (LPD) solution and preserved at 4° C. as routine clinical practice. Following the pre-EVLP flush, the lungs were placed in 2 independent EVLP circuits for 9 hours. One lung was the control group (standard EVLP protocol, (n=9), whereas the other lung was randomly subjected to different treatment conditions (n=3, each) (FIG. 13A): (1) Intense lung wash (replacement of perfusate solution and circuit after 3 h of EVLP); (2) Ultra Violet C (UVC) light (260 nm, 4 W) applied to EVLP perfusate; (3) Photodynamic Therapy (PDT), using Methylene Blue (MB) diluted in the perfusion solution (1 umol/L) associated with red light irradiation (630 nm, 20 mW/cm^2). The advantage of such design is that both control and treated lungs come from the same donor (same virus load as baseline). Tissue biopsies were collected from lower, and upper lobes of the lungs at baseline and every 3 h during perfusion and perfusate samples were collected hourly. All samples were assessed for viral load quantification using RealTime PCR assay. […]

In a further data set the test system is HCV. The data set can be described thus: EVLP of HCV+ human donor lungs with light therapy, viral load by RealTime PCR. The protocol: Human Lung Studies: effect of EVLP and light therapies into HCV titers: In order to evaluate the effect of EVLP itself and also as a platform for light-based therapies against HCV titers in the lung tissue and perfusate solution, 9 rejected human lungs from NAT+ HCV donors. Donor lungs were recovered using standard protocols and flushed with cold Low-Potassium Dextran (LPD) solution and preserved at 4° C. as routine clinical practice. Following the pre-EVLP flush, the lungs were placed in 2 independent EVLP circuits for 9 hours. One lung was the control group (standard EVLP protocol, (n=9), whereas the other lung was randomly subjected to different treatment conditions (n=3, each) (FIG. 13A): (1) Intense lung wash (replacement of perfusate solution and circuit after 3 h of EVLP); (2) Ultra Violet C (UVC) light (260 nm, 4 W) applied to EVLP perfusate; (3) Photodynamic Therapy (PDT), using Methylene Blue (MB) diluted in the perfusion solution (1 umol/L) associated with red light irradiation (630 nm, 20 mW/cm^2). The advantage of such design is that both control and treated lungs come from the same donor (same virus load as baseline). Tissue biopsies were collected from lower, and upper lobes of the lungs at baseline and every 3 h during perfusion and perfusate samples were collected hourly. All samples were assessed for viral load quantification using RealTime PCR assay. The results were normalized for percentage of viral load decrease. To translate the application of light therapies to an EVLP system, a specific device suitable to be inserted inline in the EVLP circuit where different light wavelengths could be applied to treat the perfusion solution.

Data set [2] in a line: Pre-clinical large animal lung transplant safety model (EVLP 6 h, left lung transplant, 4 h reperfusion). Format: in vivo, Yorkshire male domestic pigs. Particulars: PDT MB 1 umol/L + red light vs control and UVC. The protocol:
In order to translate such approach to the clinical EVLP setting, the safety of applying UVC and PDT during EVLP was assessed using a pre-clinical large animal transplant model (FIG. 15D).
In this model, Yorkshire male domestic pigs (30-35 kg) were used, under anesthesia and mechanic ventilation. After lung withdrawal, lungs were preserved for 2 hours at 4° C., followed by EVLP for 6 hours. During EVLP, pig lungs were randomized for three groups (n=4, each): (1) Control (standard EVLP technique); (2) Ultra Violet C; (3) Photodynamic Therapy (PDT), using Methylene Blue (MB) diluted in the perfusion solution (1 umol/L) associated with red light irradiation. During EVLP, lung physiology was assessed (pulmonary vascular resistance, pulmonary artery pressure, left atrium (venous) pressure, peak airway pressure, plateau pressure, dynamic compliance, static compliance and gas exchange function-PO2); There was no difference in ex vivo lung function during 6 hours amongst the groups. After EVLP, the left lung was transplanted followed by 4 hours of reperfusion. Post-transplant blood gas samples were collected of the transplanted graft upper and lower pulmonary veins and the average of the partial pressure of arterial oxygen (PaO2)/fraction of inspired oxygen (FiO2) was calculated.

Data set [3] deals with Staphylococcus aureus, Stenotrophomonas maltophilia, and Pseudomonas aeruginosa. As to conditions: antibiotic 333 mg/L, LB Agar plates, UVC group 0. On the procedure: Methods: A mixture of low-potassium-dextran lung perfusion solution and Lysogeny Broth (LB) media was spiked with 1,0×10^5 CFU/mL of Staphylococcus aureus, Stenotrophomonas maltophilia, and Pseudomonas aeruginosa. A mini EVLP and UVC irradiator was used (FIG. 7). After priming, the circuits were divided into three groups (n=4, each) and evaluated for 180 minutes: 1) Control (no treatment); 2) UVC (236 nm, 9 J/cm^2) and 3) Antibiotic (Imipenem/Cilastatin, 333 mg/L). Samples were taken at different timepoints and analysed, using LB Agar culture plates and bacterial DNA qPCR assay.

As for `CN(C)c1ccc2nc3ccc(=[N+](C)C)cc-3sc2c1` [Methylene blue], the “perfusion time after which no infectivity was observed” value with HCV JFH-1 strain (PDT group, red light 630 nm, 20 mW/cm^2, JFH-1 1.5×10^6 copies/mL, 37° C.) is 15 min. Besides, the “effect on HCV infectivity with ambient (room) light activation compared with red light” value in the data set with HCV JFH-1 strain (regular room light instead of red light) is reported as “weaker than with red light”. For the same molecule, the “ex vivo lung function during EVLP (delta P/F ratio, peak airway pressure, dynamic compliance) vs control lung” value in data set [1] was “no significant difference”. Also, the “decrease of HCV titers in human donor lungs” value in the data set with HCV (PDT using MB as photosensitizer, summary statement) is 98%. In addition, in the data set with HCV (PDT: methylene blue 1 umol/L + red light 630 nm, 20 mW/cm^2, 9 h EVLP, lung tissue, control 75.46%), the “HCV titers in lung tissue, % reduction” value came out at 90.96%. The “perfusate HCV titres (% reduction from baseline)” value with HCV (PDT: methylene blue 1 umol/L + red light 630 nm/20 mW/cm^2, 9 h EVLP, perfusate, control 69.49%) is 97.87%. Also, in data set [2] (pig left lung transplant), the “post-transplant PaO2/FiO2 after 4 h of reperfusion, among the groups” value is given as “no significant difference”. The “ex vivo lung function during 6 hours EVLP amongst the groups” value in data set [2] (pig lungs) is given as “no difference”.
For Imipenem/Cilastatin, the “bacterial growth after 180 minutes of treatment” value in data set [3] turned out to be 15±2.3 colonies/plate.

These data come from patent publication US12329149B2, “Apparatus and methods for irradiating organ perfusates” (University Health Network, priority 2017, dated 2025).
